Measurements taken from ChEMBL document CHEMBL1131973, “Asymmetric synthesis of novel quaternary alpha-hydroxy-delta-lactam dipeptide surrogates” (Bioorg Med Chem Lett, 1999).

Molecular target: Prothrombin (Homo sapiens, UniProt P00734)

Structure (SMILES) | Ki
N=C(N)N1CCC[C@H](NC(=O)CN2CCC[C@@](N)(Cc3ccccc3)C2=O)C1O (stereo partly drawn) | 1 nM
CCOC(=O)[C@]1(NS(=O)(=O)Cc2ccccc2)CCCN(CC(=O)N[C@H]2CCCN(C(=N)N)C2O)C1=O (stereo partly drawn) | 1 nM
N=C(N)N1CCC[C@H](NC(=O)CN2CCC[C@H](NS(=O)(=O)Cc3ccccc3)C2=O)C1O (stereo partly drawn) | 1 nM
